According to patent US10894807B2 (Siemens Medical Solutions USA, Inc., priority 2011, dated 2021):
Read-outs that look alike come from different tables or passages of the source.

Target: human PSMA (Homo sapiens (Human), UniProt Q04609)
Assay: Enzymatic assay for in vitro evaluation of PSMA inhibitors (fluorescent assay of PSMA activity, NAAG substrate, OPA detection of glutamate)
Type: biochemical

Chain of human PSMA (Q04609 whole entry): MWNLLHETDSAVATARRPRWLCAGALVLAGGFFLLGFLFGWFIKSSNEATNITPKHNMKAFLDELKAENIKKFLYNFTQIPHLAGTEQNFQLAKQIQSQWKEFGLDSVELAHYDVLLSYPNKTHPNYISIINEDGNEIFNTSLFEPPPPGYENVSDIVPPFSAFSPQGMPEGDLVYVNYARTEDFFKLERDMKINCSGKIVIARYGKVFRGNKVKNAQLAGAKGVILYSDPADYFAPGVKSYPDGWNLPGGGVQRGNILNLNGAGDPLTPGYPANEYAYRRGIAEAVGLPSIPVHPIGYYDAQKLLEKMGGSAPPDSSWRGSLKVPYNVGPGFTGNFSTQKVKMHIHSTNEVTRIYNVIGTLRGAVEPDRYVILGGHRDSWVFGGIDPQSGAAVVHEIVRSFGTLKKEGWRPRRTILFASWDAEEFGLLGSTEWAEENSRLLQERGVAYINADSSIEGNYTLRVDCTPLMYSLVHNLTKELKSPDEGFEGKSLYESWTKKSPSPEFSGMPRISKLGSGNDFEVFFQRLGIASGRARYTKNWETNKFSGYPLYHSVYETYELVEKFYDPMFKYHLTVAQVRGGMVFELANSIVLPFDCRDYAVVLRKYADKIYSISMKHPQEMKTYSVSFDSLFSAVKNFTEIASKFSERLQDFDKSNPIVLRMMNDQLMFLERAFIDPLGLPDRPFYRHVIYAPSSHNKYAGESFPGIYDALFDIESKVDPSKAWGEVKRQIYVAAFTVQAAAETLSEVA

Ki | PSMA Blkg % (10 μM) (compound at 10 μM) | PSMA Blkg % (10 μM) | SMILES | other results
6.6 nM | 99% | – | O=C(O)CC[C@H](NC(=O)N[C@@H](CCCCn1cc(CCCF)nn1)C(=O)O)C(=O)O [P188, (S)-2-(3-((S)-1-Carboxy-5-(4-(3-fluoropropyl)-1H-1,2,3-triazol-1-yl)pentyl)ureido)-pentanedioic Acid] | –
– | – | 78% | CN(C(=O)N[C@@H](CCC(=O)O)C(=O)O)[C@@H](Cc1ccc(NC(=O)CCCn2cc(CCCF)nn2)cc1)C(=O)O [P191, (S)-2-(3-((S)-1-Carboxy-2-(4-(4-(4-(3-fluoropropyl)-1H-1,2,3-triazol-1-yl)-butanamido)phenyl)-ethyl)-3-methylureido)pentanedioic Acid] | –
– | – | 29% | O=C(O)Cn1cc(C[C@H](NC(=O)N[C@@H](CCCCNC(=O)OCc2ccccc2)C(=O)O)C(=O)O)nn1 [P192, (9S,13S)-9-Carboxy-13-((1-(carboxymethyl)-1H-1,2,3-triazol-4-yl)methyl)-3,11-dioxo-1-phenyl-2-oxa-4,10,12-triazatetradecan-14-oic Acid] | –
– | – | 0% | O=C(O)CCC(CP(=O)(O)OCCOCCOCCOCCn1cc(CCCF)nn1)C(=O)O (centres unmarked) [P193, 2-(((2-(2-(2-(2-(4-(3-Fluoropropyl)-1H-1,2,3-triazol-1-yl)ethoxy)ethoxy)ethoxy)ethoxy)(hydroxy)phosphoryl)methyl)pentanedioic Acid] | –
69 nM | – | 96% | O=C(O)CC[C@H](NC(=O)N[C@@H](CCCCNC(=O)[C@H]1O[C@@H](CNC(=O)CCc2ccc(-n3cc(CCCF)nn3)cc2)[C@H](O)[C@@H](O)[C@H]1O)C(=O)O)C(=O)O [P194, (S)-2-(3-((S)-1-Carboxy-5-((2S,3R,4R,5R,6S)-6-((3-(4-(4-(3-fluoropropyl)-1H-1,2,3-triazol-1-yl)phenyl)propanamido)methyl)-3,4,5-trihydroxytetrahydro-2H-pyran-2-carboxamido)pentyl)ureido)pentanedioic Acid] | –
66 nM | – | 96% | O=C(O)CC[C@H](NC(=O)N[C@@H](Cc1ccc(OCCn2cc(CCCF)nn2)cc1)C(=O)O)C(=O)O [P195, (S)-2-(3-((S)-1-Carboxy-2-(4-(2-(4-(3-fluoropropyl)-1H-1,2,3-triazol-1-yl)ethoxy)phenyl)ethyl)ureido)pentanedioic Acid] | –
> 3000 nM | – | 22% | O=C(O)CCC(CP(=O)(O)NCCc1ccccc1)C(=O)O (centres unmarked) [P197, 2-((Hydroxy(phenethylamino)phosphoryl)methyl)pentanedioic Acid] | –
– | – | 14% | O=C(O)CCC(Nc1c(NC(CCC(=O)O)C(=O)O)c(=O)c1=O)C(=O)O (centres unmarked) [P198, 2,2′-[(3,4-Dioxocyclobut-1-ene-1,2-diyl)bis(azanediyl)]dipentanedioic Acid] | –
> 188 nM | – | 82% | O=C(O)CC[C@H](NC(=O)C[C@@H](NC(=O)OCC1c2ccccc2-c2ccccc21)C(=O)O)C(=O)O [P199, (S)-2-[(R)-((((9H-Fluoren-9-yl)methoxy)carbonyl)amino)-3-carboxypropanamido]pentanedioic Acid] | –
< 0.3 nM | – | 95% | O=C(O)CC[C@H](NC(=O)N[C@@H](CCCCNC(=S)Nc1ccc(-n2cc(CCCF)nn2)cc1)C(=O)O)C(=O)O [P200, (S)-2-(3-((S)-1-Carboxy-5-(3-(4-(4-(3-fluoropropyl)-1H-1,2,3-triazol-1-yl)phenyl)thioureido)pentyl)-ureido)pentanedioic Acid] | –
94 nM | – | 97% | O=C(O)CC[C@H](NC(=O)NC(Cc1ccc(OCCn2cc(CCCF)nn2)cc1)C(=O)O)C(=O)O (stereo partly drawn) [P202, (2S)-2-(3-(1-Carboxy-2-(4-(2-(4-(3-fluoropropyl)-1H-1,2,3-triazol-1-yl)ethoxy)phenyl)ethyl)ureido)pentanedioic Acid] | –
41 nM | – | 97% | O=C(O)CC[C@H](NC(=O)N[C@@H](Cc1ccc(OCCOCCOCCn2cc(CCCF)nn2)cc1)C(=O)O)C(=O)O [P203, (S)-2-(3-((S)-1-Carboxy-2-(4-(2-(2-(2-(4-(3-fluoropropyl)-1H-1,2,3-triazol-1-yl)ethoxy)ethoxy)ethoxy)phenyl)ethyl)ureido)pentanedioic Acid] | –
6.9 nM | – | 98% | O=C(O)CC[C@H](NC(=O)N[C@@H](COCc1ccccc1)C(=O)O)C(=O)O [P204, (S)-2-(3-((S)-2-(Benzyloxy)-1-carboxyethyl)ureido)pentanedioic Acid] | –
– | – | 79% | O=C(O)CCC(CP(=O)(O)OC[C@@H]1CCCN1C(=O)Cc1ccccc1)C(=O)O (stereo partly drawn) [P205, 2-((Hydroxy(((S)-1-(2-phenylacetyl)pyrrolidin-2-yl)methoxy)phosphoryl)methyl)pentanedioic Acid] | –
– | – | 81% | O=C(O)CCC(CP(=O)(O)OC[C@@H]1CCCN1C(=O)CCc1ccc(-n2cc(CCCF)nn2)cc1)C(=O)O (stereo partly drawn) [P206, 2-(((((S)-1-(3-(4-(4-(3-Fluoropropyl)-1H-1,2,3-triazol-1-yl)phenyl)propanoyl)pyrrolidin-2-yl)methoxy)(hydroxy)phosphoryl)methyl)pentanedioic Acid] | –

The next lines start with the molecule.

SMILES | Ki | PSMA Blkg % (10 μM) (compound at 10 μM) | PSMA Blkg % (10 μM) | other results
CN(C(=O)N[C@@H](CCC(=O)O)C(=O)O)[C@@H](CCCCn1cc(COCCOCCNc2ccc([N+](=O)[O-])cc2[N+](=O)[O-])nn1)C(=O)O [P172, (S)-2-(3-((S)-1-Carboxy-5-(4-((2-(2-(2,4-dinitrophenylamino)ethoxy)ethoxy)methyl)-1H-1,2,3-triazol-1-yl)pentyl)-3-methylureido)pentanedioic Acid] | 313 nM | – | – | –
CN(C(=O)N[C@@H](CCC(=O)O)C(=O)O)[C@@H](CCCCn1cc(CCCF)nn1)C(=O)O [P173, (S)-2-(3-((S)-1-Carboxy-5-(4-(3-fluoropropyl)-1H-1,2,3-triazol-1-yl)pentyl)-3-methylureido)pentanedioic Acid] | – | 31% | – | –
CN(C(=O)[C@H](CC(=O)O)NC(=O)COCCNC(=O)c1ccc(F)cc1)[C@@H](CCC(=O)O)C(=O)O [P174, (S)-2-((S)-3-Carboxy-2-(2-(2-(4-fluorobenzamido)ethoxy)acetamido)-N-methylpropanamido)pentanedioic Acid] | – | 1% | – | –
CN(C(=O)N[C@@H](CCC(=O)O)C(=O)O)[C@@H](CCCCNC(=O)NCc1ccccc1)C(=O)O [P175, (9S,13S)-10-Methyl-3,11-dioxo-1-phenyl-2,4,10,12-tetraazapentadecane-9,13,15-tricarboxylic Acid] | – | 18% | – | –
CN(C(=O)N[C@@H](CCC(=O)O)C(=O)O)[C@@H](CCCCNC(=O)OCc1ccc([N+](=O)[O-])cc1)C(=O)O [P176, (9S,13S)-10-Methyl-1-(4-nitrophenyl)-3,11-dioxo-2-oxa-4,10,12-triazapentadecane-9,13,15-tricarboxylic Acid] | – | 77% | – | –
Cc1ccc(S(=O)(=O)NCCCC[C@@H](C(=O)O)N(C)C(=O)N[C@@H](CCC(=O)O)C(=O)O)cc1 [P177, (S)-2-(3-((S)-1-Carboxy-5-(4-methylphenylsulfonamido)pentyl)-3-methylureido)pentanedioic Acid] | – | 38% | – | –
O=C(O)CC[C@H](NS(=O)(=O)NC(=O)OCc1ccccc1)C(=O)O [P178, (S)-2-((N-((Benzyloxy)carbonyl)sulfamoyl)amino)pentanedioic Acid] | – | 1% | – | –
O=C(O)CC[C@@H](C(=O)O)N(O)S(=O)(=O)NC(=O)OCc1ccccc1 [P179, (S)-2-((N-((Benzyloxy)carbonyl)sulfamoyl)(hydroxy)amino)pentanedioic Acid] | – | 4% | – | –
NS(=O)(=O)N(OC(=O)OCc1ccccc1)[C@@H](CCC(=O)O)C(=O)O [P180] | – | 5% | – | –
[N-]=[N+]=Nc1ccc(CCCC(=O)NS(=O)(=O)N[C@@H](CCC(=O)O)C(=O)O)cc1 [P181, (S)-2-((N-(4-(4-Azidophenyl)butanoyl)sulfamoyl)amino)pentanedioic Acid] | – | 39% | – | –
O=C(O)CC[C@H](NC(=O)N(O)[C@@H](CCCCNC(=O)c1ccc(F)nc1)C(=O)O)C(=O)O [P182, (S)-2-(3-((S)-1-Carboxy-5-(6-fluoronicotinamido)pentyl)-3-hydroxyureido)pentanedioic Acid] | – | 92% | – | –
[N-]=[N+]=NCCCCC(=O)NS(=O)(=O)N[C@@H](CCC(=O)O)C(=O)O [P183, (S)-2-((N-(5-Azidopentanoyl)sulfamoyl)amino)pentanedioic Acid] | – | 36% | – | –
CN(C(=O)N[C@@H](CCC(=O)O)C(=O)O)[C@@H](CCCCNCc1ccc(F)cc1)C(=O)O [P184, (S)-2-(3-((S)-1-Carboxy-5-(4-fluorobenzylamino)pentyl)-3-methylureido)pentanedioic Acid] | – | 10% | – | –
CC(=O)Oc1ccc2c(c1)Oc1cc(OC(C)=O)ccc1C21OC(=O)c2ccc(C(=O)NCCCC[C@H](NC(=O)N[C@@H](CCC(=O)O)C(=O)O)C(=O)O)cc21 [P185, (S)-2-(3-((S)-1-Carboxy-5-(3′,6′-diacetoxy-3-oxo-3H-spiro[isobenzofuran-1,9′-xanthen]-6-ylcarboxamido)pentyl)ureido)pentanedioic Acid] | – | – | – | PSMA Blkg % (10 μM): 99%
CC(F)C(=O)Nc1ccc(C(=O)NCCCC[C@H](NC(=O)N(O)[C@@H](CCC(=O)O)C(=O)O)C(=O)O)cc1 (stereo partly drawn) [P186, (S)-2-(3-((S)-1-Carboxy-5-(4-(2-fluoropropanamido)benzamido)pentyl)-1-hydroxyureido)pentanedioic Acid] | – | 85% | – | –
O=C(O)C(Cn1cc(CCCF)nn1)CP(=O)(O)O (centres unmarked) [P189, 3-(4-(3-Fluoropropyl)-1H-1,2,3-triazol-1-yl)-2-(phosphonomethyl)propanoic Acid] | > 688 nM | – | – | –
O=C(O)C(Cn1ccnn1)CP(=O)(O)O (centres unmarked) [P190, 2-((1H-1,2,3-Triazol-1-yl)methyl)-3-phosphonopropanoic Acid] | 188 nM | – | – | –
CC(=O)N(CCF)CC(CP(=O)(O)O)C(=O)O.O=C(O)C(F)(F)F (centres unmarked) [P196, 3-(N-(2-Fluoroethyl)acetamido)-2-(phosphonomethyl)propanoic Acid] | – | – | 27% | –
CC(C)(C)OC(=O)N1CCC[C@H]1COP(=O)(O)CC(CCC(=O)O)C(=O)O (stereo partly drawn) [P201, 2-(((((S)-1-(tert-butoxycarbonyl)pyrrolidin-2-yl)methoxy)(hydroxy)phosphoryl)methyl)-pentanedioic Acid] | > 300 nM | – | 83% | –
